Results published in US9326506B2, “Preparation method, agricultural composition and applications of natural brassinolide analogs” (CHENGDU NEWSUN CROPSCIENCE CO., LTD, priority 2012, dated 2016).

System: rice
Assay: Low temperature assay on rice seedlings
Format: in vivo
Protocol: According to a low temperature assay, we measured parameters including plant height, number of leaf, area of leaf, number of tiller, weight of root at low temperature to completely determine effects of the natural brassinolide analogues on the resistance to low temperature of a plant.
The natural brassinolide analogues, BR1, BR2, BR3, BR4, BR5 and BR6, used herein, were those prepared by the method of Example 1. Respectively the analogues were dissolved into 95% (V/V) ethanol solution, and then diluted with pure water to 1 mg/L, 0.1 mg/L, 0.01 mg/L, 0.001 mg/L and 0.0001 mg/L. In addition, pure water was used as a control.
After rice seeds were disinfected by using 5% sodium hypochlorite solution treatment, they were rinsed with distilled water until their pH>7, placed into a petri dish in a dark incubator, and cultured by using water at 30° C.±2° C. for 9 days. Then respectively the nine-day-old etiolated seedlings of rice were immersed in the above solutions containing different concentrations of the natural brassinolide analogues or pure water, and cultured at the temperature of 1° C., 2° C., 3° C., 4° C. and 5° C. for 24 hr. The parameters including plant height, area of leaf and weight of root after 3, 6, 9 and 12 days and number of leaf and number of tiller after 12 days were measured.

## C=C(C(C)C)[C@@H](O)[C@H](O)[C@@H](C)[C@H]1CCC2C3COC(=O)C4C[C@H](O)[C@H](O)C[C@]4(C)C3CC[C@@]21C (stereo partly shown) [BR3]
0.0001 mg/l, 1 °C, 3 days
  Area of leaf: 9.8 cm^2
  Height: 6.8 cm
  Weight of root: 2.8 g
0.0001 mg/l, 1 °C, 6 days
  Area of leaf: 11 cm^2
  Height: 6.9 cm
  Weight of root: 3 g
0.0001 mg/l, 1 °C, 9 days
  Area of leaf: 12.2 cm^2
  Height: 7.1 cm
  Weight of root: 3.4 g
0.0001 mg/l, 1 °C, 12 days
  Area of leaf: 13.1 cm^2
  Height: 7.2 cm
  Number of leaf: 3
  Number of tiller: 3
  Weight of root: 3.9 g
0.0001 mg/l, 2 °C, 3 days
  Area of leaf: 10 cm^2
  Height: 6.8 cm
  Weight of root: 2.8 g
0.0001 mg/l, 2 °C, 6 days
  Area of leaf: 11.7 cm^2
  Height: 7 cm
  Weight of root: 3.0 g
0.0001 mg/l, 2 °C, 9 days
  Area of leaf: 12.1 cm^2
  Height: 7.1 cm
  Weight of root: 3.2 g
0.0001 mg/l, 2 °C, 12 days
  Area of leaf: 13 cm^2
  Height: 7.4 cm
  Number of leaf: 3
  Number of tiller: 3
  Weight of root: 3.9 g
0.0001 mg/l, 3 °C, 3 days
  Area of leaf: 10 cm^2
  Height: 6.9 cm
  Weight of root: 2.5 g
0.0001 mg/l, 3 °C, 6 days
  Area of leaf: 11.8 cm^2
  Height: 7.1 cm
  Weight of root: 2.6 g
0.0001 mg/l, 3 °C, 9 days
  Area of leaf: 12.1 cm^2
  Height: 7.4 cm
  Weight of root: 2.9 g
0.0001 mg/l, 3 °C, 12 days
  Area of leaf: 13.2 cm^2
  Height: 7.5 cm
  Number of leaf: 3
  Number of tiller: 2
  Weight of root: 2.9 g
0.0001 mg/l, 4 °C, 3 days
  Area of leaf: 10 cm^2
  Height: 6.9 cm
  Weight of root: 2.5 g
0.0001 mg/l, 4 °C, 6 days
  Area of leaf: 11.5 cm^2
  Height: 7.3 cm
  Weight of root: 2.6 g
0.0001 mg/l, 4 °C, 9 days
  Area of leaf: 13 cm^2
  Height: 7.5 cm
  Weight of root: 2.9 g
0.0001 mg/l, 4 °C, 12 days
  Area of leaf: 13.4 cm^2
  Height: 7.5 cm
  Number of leaf: 3
  Number of tiller: 2
  Weight of root: 2.9 g
0.0001 mg/l, 5 °C, 3 days
  Area of leaf: 10.2 cm^2
  Height: 7.0 cm
  Weight of root: 2.5 g
0.0001 mg/l, 5 °C, 6 days
  Area of leaf: 12 cm^2
  Height: 7.4 cm
  Weight of root: 2.5 g
0.0001 mg/l, 5 °C, 9 days
  Area of leaf: 13.4 cm^2
  Height: 7.5 cm
  Weight of root: 2.9 g
0.0001 mg/l, 5 °C, 12 days
  Area of leaf: 14 cm^2
  Height: 7.7 cm
  Number of leaf: 3
  Number of tiller: 2
  Weight of root: 3.0 g
0.001 mg/l, 1 °C, 3 days
  Area of leaf: 10 cm^2
  Height: 6.9 cm
  Weight of root: 2.8 g
0.001 mg/l, 1 °C, 6 days
  Area of leaf: 11.3 cm^2
  Height: 7.1 cm
  Weight of root: 3.1 g
0.001 mg/l, 1 °C, 9 days
  Area of leaf: 12.6 cm^2
  Height: 7.1 cm
  Weight of root: 3.2 g
0.001 mg/l, 1 °C, 12 days
  Area of leaf: 13 cm^2
  Height: 7.3 cm
  Number of leaf: 3
  Number of tiller: 3
  Weight of root: 3.9 g
0.001 mg/l, 2 °C, 3 days
  Area of leaf: 9.8 cm^2
  Height: 6.9 cm
  Weight of root: 2.8 g
0.001 mg/l, 2 °C, 6 days
  Area of leaf: 11.6 cm^2
  Height: 7.1 cm
  Weight of root: 3.0 g
0.001 mg/l, 2 °C, 9 days
  Area of leaf: 12 cm^2
  Height: 7.1 cm
  Weight of root: 3.1 g
0.001 mg/l, 2 °C, 12 days
  Area of leaf: 13.1 cm^2
  Height: 7.3 cm
  Number of leaf: 3
  Number of tiller: 3
  Weight of root: 3.9 g
0.001 mg/l, 3 °C, 3 days
  Area of leaf: 10 cm^2
  Height: 7 cm
  Weight of root: 2.5 g
0.001 mg/l, 3 °C, 6 days
  Area of leaf: 12 cm^2
  Height: 7.2 cm
  Weight of root: 2.7 g
0.001 mg/l, 3 °C, 9 days
  Area of leaf: 12.2 cm^2
  Height: 7.3 cm
  Weight of root: 2.9 g
0.001 mg/l, 3 °C, 12 days
  Area of leaf: 13 cm^2
  Height: 7.4 cm
  Number of leaf: 3
  Number of tiller: 2
  Weight of root: 2.9 g
0.001 mg/l, 4 °C, 3 days
  Area of leaf: 10 cm^2
  Height: 7.1 cm
  Weight of root: 2.5 g
0.001 mg/l, 4 °C, 6 days
  Area of leaf: 12 cm^2
  Height: 7.3 cm
  Weight of root: 2.6 g
0.001 mg/l, 4 °C, 9 days
  Area of leaf: 13 cm^2
  Height: 7.4 cm
  Weight of root: 2.9 g
0.001 mg/l, 4 °C, 12 days
  Area of leaf: 13.1 cm^2
  Height: 7.5 cm
  Number of leaf: 3
  Number of tiller: 2
  Weight of root: 2.9 g
0.001 mg/l, 5 °C, 3 days
  Area of leaf: 10.2 cm^2
  Height: 7.2 cm
  Weight of root: 2.8 g
0.001 mg/l, 5 °C, 6 days
  Area of leaf: 14 cm^2
  Height: 7.5 cm
  Weight of root: 2.9 g
0.001 mg/l, 5 °C, 9 days
  Area of leaf: 15.4 cm^2
  Height: 7.8 cm
  Weight of root: 3.0 g
0.001 mg/l, 5 °C, 12 days
  Area of leaf: 16 cm^2
  Height: 7.9 cm
  Number of leaf: 3
  Number of tiller: 3
  Weight of root: 3.7 g
0.01 mg/l, 1 °C, 3 days
  Area of leaf: 10 cm^2
  Height: 7.0 cm
  Weight of root: 2.8 g
0.01 mg/l, 1 °C, 6 days
  Area of leaf: 11.6 cm^2
  Height: 7.1 cm
  Weight of root: 3.0 g
0.01 mg/l, 1 °C, 9 days
  Area of leaf: 12.4 cm^2
  Height: 7.4 cm
  Weight of root: 3.1 g
0.01 mg/l, 1 °C, 12 days
  Area of leaf: 13.6 cm^2
  Height: 7.5 cm
  Number of leaf: 3
  Number of tiller: 3
  Weight of root: 3.9 g
0.01 mg/l, 2 °C, 3 days
  Area of leaf: 10.1 cm^2
  Height: 7.1 cm
  Weight of root: 2.8 g
0.01 mg/l, 2 °C, 6 days
  Area of leaf: 11 cm^2
  Height: 7.2 cm
  Weight of root: 3.1 g
0.01 mg/l, 2 °C, 9 days
  Area of leaf: 12.5 cm^2
  Height: 7.4 cm
  Weight of root: 3 g
0.01 mg/l, 2 °C, 12 days
  Area of leaf: 13.4 cm^2
  Height: 7.5 cm
  Number of leaf: 3
  Number of tiller: 3
  Weight of root: 3.2 g
0.01 mg/l, 3 °C, 3 days
  Area of leaf: 10.2 cm^2
  Height: 7.1 cm
  Weight of root: 2.5 g
0.01 mg/l, 3 °C, 6 days
  Area of leaf: 12 cm^2
  Height: 7.3 cm
  Weight of root: 2.7 g
0.01 mg/l, 3 °C, 9 days
  Area of leaf: 12.1 cm^2
